From ChEMBL document CHEMBL1201862, “PubChem BioAssay data set” (2004)
Active and inactive are the calls of the source.

Legend:
[1] = molecular target: T1, Tyrosine-protein phosphatase non-receptor type 22 (Homo sapiens, UniProt Q9Y2R2); test: LYP1 Fluorescent Assay using OMFP substrate for In Vitro dose response studies. [Related pubchem assays (depositor defined):AID1779, AID1784, AID435024]
T1 sequence (Q9Y2R2 whole entry): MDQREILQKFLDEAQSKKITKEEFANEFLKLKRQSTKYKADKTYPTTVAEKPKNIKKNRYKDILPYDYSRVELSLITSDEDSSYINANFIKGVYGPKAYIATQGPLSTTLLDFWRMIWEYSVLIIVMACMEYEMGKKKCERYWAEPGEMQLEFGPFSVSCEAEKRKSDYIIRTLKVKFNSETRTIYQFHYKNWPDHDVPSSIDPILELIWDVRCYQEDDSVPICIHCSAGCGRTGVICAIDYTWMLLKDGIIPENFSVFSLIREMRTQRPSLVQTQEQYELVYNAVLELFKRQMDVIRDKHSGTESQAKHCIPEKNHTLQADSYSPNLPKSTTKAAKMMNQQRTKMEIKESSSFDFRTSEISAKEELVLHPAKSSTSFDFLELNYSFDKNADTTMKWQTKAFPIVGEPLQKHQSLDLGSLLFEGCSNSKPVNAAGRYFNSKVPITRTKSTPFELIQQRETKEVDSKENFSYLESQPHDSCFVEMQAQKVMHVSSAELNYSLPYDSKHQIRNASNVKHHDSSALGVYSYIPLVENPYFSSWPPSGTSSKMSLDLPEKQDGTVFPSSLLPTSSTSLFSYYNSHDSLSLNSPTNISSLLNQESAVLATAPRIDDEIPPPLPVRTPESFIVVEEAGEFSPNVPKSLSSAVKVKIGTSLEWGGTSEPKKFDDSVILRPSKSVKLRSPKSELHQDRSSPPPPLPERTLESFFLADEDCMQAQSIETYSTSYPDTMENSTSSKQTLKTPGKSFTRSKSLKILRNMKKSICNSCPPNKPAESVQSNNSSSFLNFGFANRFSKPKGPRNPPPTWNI

[2] = molecular target: Serine/threonine-protein phosphatase (Homo sapiens, UniProt Q9BPW0); test: Counterscreen for inhibitors of PP1: fluorescence-based biochemical high throughput dose response assay to identify inhibitors of Protein Phosphatase 5 (PP5). [Related pubchem assays: 2034 (Summary (PP5 inhibitors)), 1987 (PP5 inhibitors in singlate), 2235 (PP1 inhibitors in singlate)]
[3] = molecular target: T1, Tyrosine-protein phosphatase non-receptor type 22; type: functional
[4] = molecular target: Serine/threonine-protein phosphatase PP1-alpha catalytic subunit (Homo sapiens, UniProt P62136); test: PP1 phosphatase inhibitors, dose response, biochemical, fluorescence (AID 2403);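 note: phosphatase turnover of OMFP into fluorescent 3-O-methylfluorescein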
[5] = molecular target: T2, Carboxy-terminal domain RNA polymerase II polypeptide A small phosphatase 1 (Homo sapiens, UniProt Q9GZU7); test: inhibitors of CTDSP1, concentration-response testing, biochemical assay, absorbance-based, actives from ultra-high-throughput screening (AID 540297); type: functional
T2 sequence (Q9GZU7 whole entry): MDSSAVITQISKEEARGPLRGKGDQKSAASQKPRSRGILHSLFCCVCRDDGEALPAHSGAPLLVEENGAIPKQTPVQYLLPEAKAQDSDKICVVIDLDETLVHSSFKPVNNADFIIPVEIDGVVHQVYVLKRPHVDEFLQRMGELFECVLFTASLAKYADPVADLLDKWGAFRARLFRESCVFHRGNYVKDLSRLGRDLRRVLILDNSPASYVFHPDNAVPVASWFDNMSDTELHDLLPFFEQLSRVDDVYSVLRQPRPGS

[6] = molecular target: DNA (cytosine-5)-methyltransferase 1 (Homo sapiens, UniProt P26358); test: DNMT1 methyltransferase inhibitors, confirmation, biochemical, fluorescent molecular beacon (AID 602386); type: functional
[7] = molecular target: T3, Tyrosine-protein phosphatase non-receptor type 7 (Homo sapiens, UniProt P35236); test: HTS HePTP Fluorescent Assay using OMFP substrate for In Vitro dose response studies. [Related pubchem assays (depositor defined):AID1059, AID1077, AID1784, AID2068, AID2085, AID435032, AID521]; type: functional
T3 sequence (P35236 whole entry): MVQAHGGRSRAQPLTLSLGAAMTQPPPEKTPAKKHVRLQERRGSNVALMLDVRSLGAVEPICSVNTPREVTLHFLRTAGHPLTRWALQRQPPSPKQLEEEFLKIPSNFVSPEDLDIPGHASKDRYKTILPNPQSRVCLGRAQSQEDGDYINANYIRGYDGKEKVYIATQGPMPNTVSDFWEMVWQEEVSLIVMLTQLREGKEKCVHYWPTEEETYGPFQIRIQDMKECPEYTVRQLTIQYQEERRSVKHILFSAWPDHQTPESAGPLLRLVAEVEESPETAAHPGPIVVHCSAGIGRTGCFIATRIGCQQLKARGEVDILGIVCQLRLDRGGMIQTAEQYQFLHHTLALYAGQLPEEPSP

[8] = molecular target: T4, Apoptotic protease-activating factor 1 (Homo sapiens, UniProt O14727); test: activation of Apaf-1 mediated apoptosis – fluorescent, uHTS hits, dose response (AID 588554); type: functional
T4 sequence (O14727 whole entry): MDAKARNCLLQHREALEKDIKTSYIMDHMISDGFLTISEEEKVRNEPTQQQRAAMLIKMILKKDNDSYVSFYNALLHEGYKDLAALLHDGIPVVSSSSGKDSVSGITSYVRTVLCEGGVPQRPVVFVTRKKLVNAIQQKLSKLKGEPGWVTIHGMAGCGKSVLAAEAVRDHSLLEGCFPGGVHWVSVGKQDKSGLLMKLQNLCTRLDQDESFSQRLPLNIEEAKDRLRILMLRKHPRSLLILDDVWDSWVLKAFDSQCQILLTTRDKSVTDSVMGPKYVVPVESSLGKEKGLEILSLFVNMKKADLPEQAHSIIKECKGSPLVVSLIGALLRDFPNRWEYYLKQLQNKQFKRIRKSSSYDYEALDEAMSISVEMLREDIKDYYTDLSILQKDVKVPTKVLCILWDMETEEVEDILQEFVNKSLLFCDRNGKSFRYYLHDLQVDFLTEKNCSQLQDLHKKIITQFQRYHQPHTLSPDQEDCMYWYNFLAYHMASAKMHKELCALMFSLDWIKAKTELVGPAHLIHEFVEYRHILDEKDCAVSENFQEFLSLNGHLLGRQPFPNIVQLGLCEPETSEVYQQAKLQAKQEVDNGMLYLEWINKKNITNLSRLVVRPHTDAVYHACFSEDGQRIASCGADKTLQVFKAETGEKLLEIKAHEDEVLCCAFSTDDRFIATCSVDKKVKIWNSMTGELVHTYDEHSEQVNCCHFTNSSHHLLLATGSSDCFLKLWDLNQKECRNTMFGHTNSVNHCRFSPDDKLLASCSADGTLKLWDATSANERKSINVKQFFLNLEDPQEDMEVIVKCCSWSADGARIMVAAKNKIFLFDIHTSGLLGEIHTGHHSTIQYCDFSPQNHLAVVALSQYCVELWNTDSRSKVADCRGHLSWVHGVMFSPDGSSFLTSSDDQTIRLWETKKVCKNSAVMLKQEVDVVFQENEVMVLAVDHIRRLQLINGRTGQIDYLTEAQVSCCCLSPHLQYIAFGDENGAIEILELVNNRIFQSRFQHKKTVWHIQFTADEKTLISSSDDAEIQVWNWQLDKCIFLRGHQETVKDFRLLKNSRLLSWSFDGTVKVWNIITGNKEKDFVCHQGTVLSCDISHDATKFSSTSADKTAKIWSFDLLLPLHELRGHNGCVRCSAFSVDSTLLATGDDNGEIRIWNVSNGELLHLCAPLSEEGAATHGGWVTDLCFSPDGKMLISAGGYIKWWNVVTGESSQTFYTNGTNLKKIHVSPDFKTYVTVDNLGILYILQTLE

[9] = molecular target: T1, Tyrosine-protein phosphatase non-receptor type 22; test: inhibitors of LYP phosphatase, biochemical, fluorescence intensity, uHTS (AID 1779)
[10] = molecular target: T3, Tyrosine-protein phosphatase non-receptor type 7; type: functional
[11] = molecular target: Beta-adrenergic receptor kinase 1 (Homo sapiens, UniProt P25098); test: aptamer displacement from bead-bound GRK2 – biochemical, cherry pick 1, bead flow cytometry, dose response (AID 504500)
[12] = molecular target: T1, Tyrosine-protein phosphatase non-receptor type 22; type: functional; remark: listed apart in the source
ORF 73 = ORF 73 (Human herpesvirus 8, UniProt O40947); test: inhibitors of C-LANA binding to LBS DNA, dose response, biochemical, fluorescence polarization, cherry-picked samples (AID 504725); design: species or system Human gammaherpesvirus 8;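 note: fluorescence polarization of a labeled DNA duplex reporting LANA DNA binding; potency is for inhibitors that block LANA binding to the DNA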
DNA topoisomerase = DNA topoisomerase (Yersinia pestis, UniProt A0A2S9PM60); test: Y. pestis Topo-I inhibitors, cleavage product readout, dose response, biochemical, cherry-pick (AID 588525)
DNA topoisomerase, sequence (A0A2S9PM60 whole entry): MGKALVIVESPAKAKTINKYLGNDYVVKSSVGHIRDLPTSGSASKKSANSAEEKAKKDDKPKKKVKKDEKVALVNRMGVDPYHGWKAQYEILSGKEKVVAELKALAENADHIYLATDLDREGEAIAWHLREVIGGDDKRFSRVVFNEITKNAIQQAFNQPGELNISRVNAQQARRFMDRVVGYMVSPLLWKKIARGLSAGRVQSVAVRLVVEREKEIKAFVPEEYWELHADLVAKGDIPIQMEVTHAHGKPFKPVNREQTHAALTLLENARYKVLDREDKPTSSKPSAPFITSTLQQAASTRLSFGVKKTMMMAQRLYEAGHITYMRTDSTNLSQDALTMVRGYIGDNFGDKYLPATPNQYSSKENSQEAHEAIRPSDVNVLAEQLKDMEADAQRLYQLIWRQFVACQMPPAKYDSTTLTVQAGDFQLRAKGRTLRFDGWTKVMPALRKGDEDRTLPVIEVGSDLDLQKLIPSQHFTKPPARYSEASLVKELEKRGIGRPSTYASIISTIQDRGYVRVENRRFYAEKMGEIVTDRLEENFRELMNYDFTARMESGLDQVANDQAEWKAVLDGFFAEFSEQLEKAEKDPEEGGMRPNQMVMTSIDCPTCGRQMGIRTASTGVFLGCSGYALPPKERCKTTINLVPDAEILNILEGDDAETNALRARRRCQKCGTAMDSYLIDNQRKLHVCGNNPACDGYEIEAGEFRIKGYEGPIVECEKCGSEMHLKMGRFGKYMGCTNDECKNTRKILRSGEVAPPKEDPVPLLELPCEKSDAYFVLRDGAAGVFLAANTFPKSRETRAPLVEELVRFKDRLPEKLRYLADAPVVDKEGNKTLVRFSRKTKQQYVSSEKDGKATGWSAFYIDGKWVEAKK

Beta-adrenergic receptor kinase 1, sequence (P25098 whole entry): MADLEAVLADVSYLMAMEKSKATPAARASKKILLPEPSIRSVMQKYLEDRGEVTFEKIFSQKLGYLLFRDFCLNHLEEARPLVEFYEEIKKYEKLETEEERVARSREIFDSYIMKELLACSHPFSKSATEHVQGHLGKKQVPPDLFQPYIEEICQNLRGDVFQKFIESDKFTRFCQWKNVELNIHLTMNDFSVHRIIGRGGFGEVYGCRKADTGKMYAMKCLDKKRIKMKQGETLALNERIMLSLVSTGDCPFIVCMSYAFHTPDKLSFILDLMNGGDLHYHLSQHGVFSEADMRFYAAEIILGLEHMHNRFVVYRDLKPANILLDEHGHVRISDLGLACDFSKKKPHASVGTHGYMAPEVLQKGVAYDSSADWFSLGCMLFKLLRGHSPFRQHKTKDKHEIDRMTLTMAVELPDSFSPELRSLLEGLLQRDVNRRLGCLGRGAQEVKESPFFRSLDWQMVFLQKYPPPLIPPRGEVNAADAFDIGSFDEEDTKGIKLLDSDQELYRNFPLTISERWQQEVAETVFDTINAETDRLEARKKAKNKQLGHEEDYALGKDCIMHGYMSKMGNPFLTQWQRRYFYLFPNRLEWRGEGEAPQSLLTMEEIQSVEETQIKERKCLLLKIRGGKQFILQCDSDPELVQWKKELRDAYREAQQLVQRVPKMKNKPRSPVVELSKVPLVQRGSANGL
ORF 73, sequence (O40947 whole entry): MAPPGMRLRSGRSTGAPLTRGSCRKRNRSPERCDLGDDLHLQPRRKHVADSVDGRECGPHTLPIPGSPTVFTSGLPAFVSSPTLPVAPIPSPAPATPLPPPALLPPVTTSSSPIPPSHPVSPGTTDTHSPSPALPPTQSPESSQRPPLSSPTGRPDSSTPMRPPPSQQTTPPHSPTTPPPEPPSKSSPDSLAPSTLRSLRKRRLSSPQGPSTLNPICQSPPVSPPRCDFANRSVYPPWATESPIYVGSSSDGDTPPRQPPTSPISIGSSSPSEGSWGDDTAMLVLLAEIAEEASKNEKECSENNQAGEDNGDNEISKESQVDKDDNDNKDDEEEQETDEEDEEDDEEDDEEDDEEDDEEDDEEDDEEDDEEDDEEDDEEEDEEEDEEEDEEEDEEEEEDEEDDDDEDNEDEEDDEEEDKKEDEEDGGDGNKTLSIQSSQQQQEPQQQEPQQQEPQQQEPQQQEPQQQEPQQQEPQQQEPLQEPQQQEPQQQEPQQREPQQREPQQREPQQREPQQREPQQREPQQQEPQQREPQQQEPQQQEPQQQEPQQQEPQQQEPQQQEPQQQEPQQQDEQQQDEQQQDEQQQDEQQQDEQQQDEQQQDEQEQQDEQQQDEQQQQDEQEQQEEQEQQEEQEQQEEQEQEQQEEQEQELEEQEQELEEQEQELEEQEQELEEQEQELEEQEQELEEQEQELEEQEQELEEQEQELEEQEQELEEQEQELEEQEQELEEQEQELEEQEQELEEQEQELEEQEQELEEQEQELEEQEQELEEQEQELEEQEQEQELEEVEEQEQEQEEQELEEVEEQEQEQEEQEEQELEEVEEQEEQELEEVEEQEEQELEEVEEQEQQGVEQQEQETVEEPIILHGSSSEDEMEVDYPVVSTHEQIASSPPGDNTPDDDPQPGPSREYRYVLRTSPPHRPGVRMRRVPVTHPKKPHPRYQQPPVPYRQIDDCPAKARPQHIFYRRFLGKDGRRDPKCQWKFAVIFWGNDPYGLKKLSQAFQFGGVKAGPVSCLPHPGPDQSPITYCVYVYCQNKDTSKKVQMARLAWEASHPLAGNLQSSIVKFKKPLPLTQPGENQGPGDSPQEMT
Serine/threonine-protein phosphatase PP1-alpha catalytic subunit, sequence (P62136 whole entry, the tested form may be a part): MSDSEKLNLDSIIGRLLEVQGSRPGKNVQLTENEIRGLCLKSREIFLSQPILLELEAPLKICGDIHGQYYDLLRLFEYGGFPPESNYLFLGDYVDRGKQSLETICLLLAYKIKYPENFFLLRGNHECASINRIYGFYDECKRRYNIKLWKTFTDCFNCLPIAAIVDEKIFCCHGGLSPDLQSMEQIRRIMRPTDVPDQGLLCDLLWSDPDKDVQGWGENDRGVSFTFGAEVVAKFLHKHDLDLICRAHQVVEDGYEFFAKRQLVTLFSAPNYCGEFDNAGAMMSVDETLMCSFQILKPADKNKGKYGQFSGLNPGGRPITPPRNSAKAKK
Serine/threonine-protein phosphatase, sequence (Q9BPW0 whole entry): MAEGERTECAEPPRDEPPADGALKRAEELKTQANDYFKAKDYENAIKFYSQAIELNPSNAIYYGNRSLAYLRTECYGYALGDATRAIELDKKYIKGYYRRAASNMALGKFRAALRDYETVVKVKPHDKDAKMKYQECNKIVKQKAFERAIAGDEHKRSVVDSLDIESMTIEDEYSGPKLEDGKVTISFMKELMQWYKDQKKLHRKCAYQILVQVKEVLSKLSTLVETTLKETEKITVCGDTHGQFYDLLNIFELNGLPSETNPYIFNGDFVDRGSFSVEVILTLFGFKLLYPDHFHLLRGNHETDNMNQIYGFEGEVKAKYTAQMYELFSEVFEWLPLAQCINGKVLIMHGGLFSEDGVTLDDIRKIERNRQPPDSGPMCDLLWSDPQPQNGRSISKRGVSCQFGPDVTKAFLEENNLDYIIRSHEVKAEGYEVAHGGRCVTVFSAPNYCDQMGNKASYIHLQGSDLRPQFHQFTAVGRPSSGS
DNA (cytosine-5)-methyltransferase 1, sequence (P26358 whole entry): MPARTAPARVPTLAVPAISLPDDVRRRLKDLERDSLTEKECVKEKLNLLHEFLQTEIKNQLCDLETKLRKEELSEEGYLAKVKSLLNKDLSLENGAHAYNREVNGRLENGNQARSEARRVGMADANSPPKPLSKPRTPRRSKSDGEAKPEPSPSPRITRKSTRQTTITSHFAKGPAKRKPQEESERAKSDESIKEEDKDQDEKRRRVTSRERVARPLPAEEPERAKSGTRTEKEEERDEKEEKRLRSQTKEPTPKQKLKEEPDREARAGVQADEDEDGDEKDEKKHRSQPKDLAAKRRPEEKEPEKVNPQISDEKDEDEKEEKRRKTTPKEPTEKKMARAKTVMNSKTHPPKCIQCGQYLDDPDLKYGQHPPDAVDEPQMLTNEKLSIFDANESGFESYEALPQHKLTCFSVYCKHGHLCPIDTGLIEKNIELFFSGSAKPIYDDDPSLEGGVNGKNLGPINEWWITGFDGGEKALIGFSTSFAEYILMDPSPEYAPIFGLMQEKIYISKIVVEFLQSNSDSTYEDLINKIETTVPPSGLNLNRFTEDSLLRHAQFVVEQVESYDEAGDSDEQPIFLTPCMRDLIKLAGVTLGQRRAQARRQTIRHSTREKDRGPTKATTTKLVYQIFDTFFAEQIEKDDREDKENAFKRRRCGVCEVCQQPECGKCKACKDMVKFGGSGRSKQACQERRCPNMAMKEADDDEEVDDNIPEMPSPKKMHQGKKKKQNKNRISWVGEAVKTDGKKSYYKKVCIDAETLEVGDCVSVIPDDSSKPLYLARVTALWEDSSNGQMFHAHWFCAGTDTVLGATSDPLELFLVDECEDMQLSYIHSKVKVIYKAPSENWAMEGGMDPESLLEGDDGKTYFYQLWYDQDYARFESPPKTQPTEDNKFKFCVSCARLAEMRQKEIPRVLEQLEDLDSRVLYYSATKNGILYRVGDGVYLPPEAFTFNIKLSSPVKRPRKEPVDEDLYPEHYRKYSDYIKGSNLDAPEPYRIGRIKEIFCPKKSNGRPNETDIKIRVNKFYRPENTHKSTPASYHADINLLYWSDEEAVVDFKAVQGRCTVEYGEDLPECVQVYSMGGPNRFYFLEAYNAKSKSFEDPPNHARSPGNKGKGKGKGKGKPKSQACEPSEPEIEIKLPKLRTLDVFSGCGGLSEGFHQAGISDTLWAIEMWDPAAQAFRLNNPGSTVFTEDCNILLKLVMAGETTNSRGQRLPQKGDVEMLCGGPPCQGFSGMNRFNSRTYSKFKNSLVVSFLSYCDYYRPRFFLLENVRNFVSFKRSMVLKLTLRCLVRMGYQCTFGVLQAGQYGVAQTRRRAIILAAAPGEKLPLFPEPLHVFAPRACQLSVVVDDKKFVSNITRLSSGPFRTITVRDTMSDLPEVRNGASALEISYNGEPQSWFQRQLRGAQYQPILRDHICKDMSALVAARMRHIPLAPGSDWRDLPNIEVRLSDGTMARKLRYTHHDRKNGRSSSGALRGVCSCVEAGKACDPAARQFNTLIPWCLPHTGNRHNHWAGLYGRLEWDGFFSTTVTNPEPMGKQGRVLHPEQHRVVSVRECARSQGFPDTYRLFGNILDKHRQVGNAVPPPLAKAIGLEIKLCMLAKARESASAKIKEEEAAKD

Row | Structure (SMILES) | IC50 [1] | IC50 [2] | IC50 [3] | IC50 [4] | IC50 [5] | IC50 [6] | IC50 [7] | EC50 [8] | IC50 [9] | IC50 [10] | EC50 [11] | IC50 [12] | AC50 (ORF 73) | AC50 (DNA topoisomerase)
1 | CC(C)(CS(=O)(=O)[O-])NC(=O)CC[N+](C)(C)CCO | 4.28 µM (active) | > 67 µM (not active) | 5.97 µM (active) | 2.46 µM (active) | 453 nM (active) | 3.6 µM (active) | 28.6 µM (active) | 1.16 µM (active) | 10.9 µM (active) | 17.9 µM (active) | 670 nM (active) | 4.08 µM (active) | 39.8 µM (active) | –
2 | CCOc1ccc(N2C(=O)CC(N3CCN(c4ccc(C(=O)c5ccncc5)cc4)CC3)C2=O)cc1 (centres undefined) | – | – | – | – | – | – | – | – | – | – | – | – | – | 10.6 µM (active)
